Experimental findings from ChEMBL document CHEMBL5620412, “Discovery of benzofuran-2-carboxylic acid derivatives as lymphoid tyrosine phosphatase (LYP) inhibitors for cancer immunotherapy” (Eur J Med Chem, 2023) are described below.

Each structure is given as a SMILES string. The source made the active and inactive calls. The calls are words filed in the database; no cut-off is given here.

This test deals with T1, Tyrosine-protein phosphatase non-receptor type 22 (Homo sapiens) (UniProt Q9Y2R2).
T1 sequence (whole entry): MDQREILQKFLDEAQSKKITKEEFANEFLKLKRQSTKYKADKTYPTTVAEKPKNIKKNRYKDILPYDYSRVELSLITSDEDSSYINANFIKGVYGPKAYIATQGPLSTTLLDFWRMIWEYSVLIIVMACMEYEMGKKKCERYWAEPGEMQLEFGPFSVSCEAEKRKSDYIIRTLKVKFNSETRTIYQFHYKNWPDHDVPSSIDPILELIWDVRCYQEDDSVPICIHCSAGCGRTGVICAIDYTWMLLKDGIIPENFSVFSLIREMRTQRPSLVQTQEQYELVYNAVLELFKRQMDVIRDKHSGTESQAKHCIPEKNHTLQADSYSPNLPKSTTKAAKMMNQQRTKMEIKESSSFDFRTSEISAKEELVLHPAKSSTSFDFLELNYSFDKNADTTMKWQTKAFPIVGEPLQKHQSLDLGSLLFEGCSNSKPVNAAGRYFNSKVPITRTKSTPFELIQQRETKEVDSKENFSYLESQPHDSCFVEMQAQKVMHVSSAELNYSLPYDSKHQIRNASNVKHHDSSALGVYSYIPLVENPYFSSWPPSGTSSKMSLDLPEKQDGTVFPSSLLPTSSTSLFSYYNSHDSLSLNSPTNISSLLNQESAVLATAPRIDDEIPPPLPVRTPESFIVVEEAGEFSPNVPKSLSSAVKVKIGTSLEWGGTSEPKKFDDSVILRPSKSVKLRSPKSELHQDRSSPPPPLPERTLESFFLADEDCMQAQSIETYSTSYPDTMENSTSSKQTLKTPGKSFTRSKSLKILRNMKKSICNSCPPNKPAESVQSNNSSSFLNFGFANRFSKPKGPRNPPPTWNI
Kind of test: Reversible binding affinity to N-terminal His-tagged LYP catalytic domain (1 to 294 residues) (unknown origin) expressed in Escherichia coli BL21 (DE3) cells using pNPP as substrate incubated for 10 to 90 mins by absorbance based assay. The following applies: time 10-90 min.

As for `O=C(O)c1cc2cc(N(Cc3ccc(OCc4ccccc4)cc3)S(=O)(=O)c3ccc(-c4ccccc4)cc3)ccc2o1`, the result was Active.
